For test [1], the target named is T1, MT1-MMP (Homo sapiens, UniProt P50281). Briefly: fluorescence polarisation competition experiments (affinity to MT1-MMP). Format: binding. To be noted: tris-sulfone version, Figure 2. The procedure: Subsequently, the affinity to the MT1-MMP target was measured by fluorescence polarisation competition experiments for 17-69-07-N241, and its sulfone versions (Figure 2).

The target in test [2] is T1, MT1-MMP. Put plainly: selectivity / cross-reactivity against other MMPs. Format: binding. As to conditions: does not cross-react with MMP-1, MMP-2, MMP-15 and MMP-16.

The source of these data is EP3192802A1, “STABILIZED PEPTIDE DERIVATIVES” (Bicycle Therapeutics Limited, priority 2016, dated 2017).

Usually Kd stands for the equilibrium constant for the complex coming apart. `C[C@H](NC(=O)CN(C)C(=O)CN(C)C(=O)CN(C)C(=O)CN(C)C(=O)CN(C)C(=O)CN(C)C(=O)CN(C)C(=O)CN(C)C(=O)CN(C)C(=O)CN(C)C(=O)CCN)C(=O)N[C@H]1CS(=O)(=O)Cc2cc3cc(c2)CS(=O)(=O)C[C@H](NC(=O)[C@@H](C)NC(=O)[C@H](Cc2cccc4ccccc24)NC(=O)[C@H](CCC(=O)O)NC(=O)[C@H](CC(N)=O)NC(=O)[C@@H](C)NC1=O)C(=O)N[C@@H](CCC(=O)O)C(=O)N[C@@H](CC(=O)O)C(=O)N[C@@H](Cc1ccccc1)C(=O)N[C@@H](Cc1ccc(O)cc1)C(=O)N[C@@H](CC(=O)O)C(=O)N[C@@H](C(C)(C)C)C(=O)N[C@H](C(N)=O)CS(=O)(=O)C3` [17-69-07-N338] registered a Kd in test [1] of approximately 10 nM. For “-Ci-Y-N-E-F-G-Cii-E-D-F-Y-D-I-Ciii- [17-69-07]”, the “selectivity for MT1-MMP” value in test [2] was “uniquely selective for MT1-MMP”.
